pIC50: −log10 of the molar value.
Tests used:
[1] = target: Beta Secretase enzyme (BACE) (Homo sapiens, UniProt P56817); experiment: In vitro enzymatic BACE FRET (fluorescence resonance energy transfer) assay; assay type: biochemical; settings: average IC50, enzyme assay; read-out: BACE 1 FRET assay
How it was run: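 Acetate buffer (0.05 M, pH 4.2), 10% DMSO final, 100 uM nonionic detergent genapol. Substrate addition (50 nM FRET peptide) initiates; one-hour incubation; Tris raises pH to neutrality before fluorescence measurement.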

[2] = tested on: Aβ40 in conditioned medium of cells stably expressing Amyloid Precursor Protein (APP); experiment: In vitro BACE cell-based assay (Aβ40 in conditioned medium, sandwich ELISA); settings: Homo sapiens, HEK293, average IC50; read-out: HEK cell assay
Experimental: In Vitro BACE Cell-Based Assay
The cell-based assay measures inhibition or reduction of Aβ40 in conditioned medium of test compound treated cells expressing amyloid precursor protein.
Cells stably expressing Amyloid Precursor Protein (APP) were plated at a density of 40K cells/well in 96 well plates (Costar). The cells were cultivated for 24 hours at 37° C. and 5% CO2 in DMEM supplemented with 10% FBS. The test compounds were then added to cells in 10-point dose response concentrations with the starting concentration being either 100 μM or 10 μM. The compounds were diluted from stock solutions in DMSO and the final DMSO concentration of the test compounds on cells was 0.1%. […] The IC50 of the compound was calculated from the percent of control or percent inhibition of Aβ 40 as a function of the concentration of the test compound.
The sandwich ELISA to detect Aβ 40 was performed in 96 well microtiter plates, which were pre-treated with goat anti-rabbit IgG (Pierce). The capture and detecting antibody pair that were used to detect Aβ 40 from cell supernatants were affinity purified pAb40 (Biosource) and biotinylated 6E10 (Signet Labs Inc.), respectively. The optimal concentration for the pAb40 antibody was 3 μg/ml in Superblock/TBS (Pierce) that was supplemented with 0.05% Tween 20 (Sigma).
Cellular supernatants were incubated with the capture antibody for 3 h at 4° C., followed by 3 wash steps in TBS-tween (0.05%). The detecting antibody incubation was for 2 h at 4° C., again followed by the wash steps as described previously. The final readout of the ELISA is Time-Resolved Fluorescence (counts per minute) using Delfia reagents Streptavidin-Europium and Enhancement solutions (Perkin Elmer) and the Victor 2 multilabel counter (Perkin Elmer).

Beta Secretase enzyme (BACE), sequence (P56817 46-501, species assumed): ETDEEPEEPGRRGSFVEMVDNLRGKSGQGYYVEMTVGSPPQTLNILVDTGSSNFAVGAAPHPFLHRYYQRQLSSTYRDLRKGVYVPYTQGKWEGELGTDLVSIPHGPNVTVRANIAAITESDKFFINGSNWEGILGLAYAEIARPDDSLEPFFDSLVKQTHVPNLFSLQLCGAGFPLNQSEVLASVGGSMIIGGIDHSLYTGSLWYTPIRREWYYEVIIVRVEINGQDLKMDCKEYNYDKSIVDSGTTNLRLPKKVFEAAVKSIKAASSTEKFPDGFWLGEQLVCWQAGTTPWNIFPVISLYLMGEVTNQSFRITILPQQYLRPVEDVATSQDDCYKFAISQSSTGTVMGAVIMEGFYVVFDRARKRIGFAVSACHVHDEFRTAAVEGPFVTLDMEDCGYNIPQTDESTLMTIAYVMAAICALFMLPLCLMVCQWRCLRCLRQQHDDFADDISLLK

Structure (SMILES)	pIC50 [1]	pIC50 [2]
COc1cncc(-c2ccc3c(c2)[C@@]2(COC(N)=N2)c2cc(C4=CCOCC4)ncc2O3)c1 [Example 144, (5S)-3-(3,6-dihydro-2H-pyran-4-yl)-7-(5-methoxy-3-pyridinyl)spiro[chromeno[2,3-c]pyridine-5,4′-[1,3]oxazol]-2′-amine]	8.80	8.06
NC1=N[C@@]2(CO1)c1cc(-c3cccc(C(F)(F)F)c3)ccc1Oc1cnc(C3=CCOCC3)cc12 [Example 145, (5S)-3-(3,6-dihydro-2H-pyran-4-yl)-7-(3-(trifluoromethyl)phenyl)spiro[chromeno[2,3-c]pyridine-5,4′-[1,3]oxazol]-2′-amine]	8.66	7.09
C[Si](C)(C)c1cc2c(nc1F)Oc1ccc(-c3cccnc3F)cc1[C@@]21COC(N)=N1 [Example 146, (5S)-2-fluoro-7-(2-fluoro-3-pyridinyl)-3-(trimethylsilyl)spiro[chromeno[2,3-b]pyridine-5,4′-[1,3]oxazol]-2′-amine]	7.91	6.77
CC1(C#Cc2cc3c(nc2F)Oc2ccc(-c4cccnc4F)cc2C32COC(N)=N2)COC1 (stereo not shown) [Example 149, 2-fluoro-7-(2-fluoro-3-pyridinyl)-3-((3-methyl-3-oxetanyl)ethynyl)spiro[chromeno[2,3-b]pyridine-5,4′-[1,3]oxazol]-2′-amine]	9.10	8.12
CC1(C#Cc2cc3c(cn2)Oc2ccc(-c4cncc(F)c4)cc2[C@@]32COC(N)=N2)COC1 [Example 153, (5S)-7-(5-fluoro-3-pyridinyl)-3-((3-methyl-3-oxetanyl)ethynyl)spiro[chromeno[2,3-c]pyridine-5,4′-[1,3]oxazol]-2′-amine]	8.04	7.34
CC1(C#Cc2cc3c(cn2)Oc2ccc(-c4cccnc4)cc2[C@@]32COC(N)=N2)COC1 [Example 154, (5S)-3-((3-methyl-3-oxetanyl)ethynyl)-7-(3-pyridinyl)spiro[chromeno[2,3-c]pyridine-5,4′-[1,3]oxazol]-2′-amine]	8.85	8.19
CC1(C#Cc2ccc3c(c2)[C@@]2(COC(N)=N2)c2cc(C4=CCOCC4)ncc2O3)COC1 [Example 160, (5S)-3-(3,6-dihydro-2H-pyran-4-yl)-7-((3-methyl-3-oxetanyl)ethynyl)spiro[chromeno[2,3-c]pyridine-5,4′-[1,3]oxazol]-2′-amine]	7.66	7.04
CC(C)(C)C#Cc1ccc2c(c1)[C@@]1(COC(N)=N1)c1cc(C3=CCOCC3)ncc1O2 [Example 161, (5S)-3-(3,6-dihydro-2H-pyran-4-yl)-7-(3,3-dimethyl-1-butyn-1-yl)spiro[chromeno[2,3-c]pyridine-5,4′-[1,3]oxazol]-2′-amine]	8.01	6.96
CC1(C#Cc2cc3c(cn2)Oc2ccc(-c4cccc(C#N)c4)cc2[C@@]32COC(N)=N2)COC1 [Example 164, 3-((5S)-2′-amino-3-((3-methyl-3-oxetanyl)ethynyl)spiro[chromeno[2,3-c]pyridine-5,4′-[1,3]oxazol]-7-yl)benzonitrile]	8.64	7.72
NC1=N[C@@]2(CO1)c1cc(-c3cccc(Cl)c3)ccc1Oc1ncc(-c3cnccn3)cc12 [Example 166, (5S)-7-(3-chlorophenyl)-3-(2-pyrazinyl)spiro[chromeno[2,3-b]pyridine-5,4′-[1,3]oxazol]-2′-amine]	8.74	7.75
CC1(C#Cc2cnc3c(c2)[C@]2(COC(N)=N2)c2cc(-c4ccc(F)nc4)ccc2O3)COC1 [Example 167, (5S)-7-(6-fluoro-3-pyridinyl)-3-((3-methyl-3-oxetanyl)ethynyl)spiro[chromeno[2,3-b]pyridine-5,4′-[1,3]oxazol]-2′-amine]	8.59	7.86
NC1=N[C@@]2(CO1)c1cc(-c3cc(Cl)ccc3F)ccc1Oc1ncc(C3=CCCOC3)cc12 [Example 172, (5S)-7-(5-chloro-2-fluorophenyl)-3-(5,6-dihydro-2H-pyran-3-yl)spiro[chromeno[2,3-b]pyridine-5,4′-[1,3]oxazol]-2′-amine]	9.40	8.28

More lines, in order of rising pIC50 [1], values ahead:

pIC50 [1]	pIC50 [2]	Structure (SMILES)
7.64	6.11	CC(C)(C)C#Cc1ccc2c(c1)[C@@]1(COC(N)=N1)c1cc(-c3ccnc(F)c3)ncc1O2 [Example 162, (5S)-7-(3,3-dimethyl-1-butyn-1-yl)-3-(2-fluoro-4-pyridinyl)spiro[chromeno[2,3-c]pyridine-5,4′-[1,3]oxazol]-2′-amine]
7.65	6.91	NC1=NC2(CO1)c1cc(-c3cccnc3F)ccc1Oc1nc(F)c(-c3cccnc3F)cc12 (stereo not shown) [Example 147, 2-fluoro-3,7-bis(2-fluoro-3-pyridinyl)spiro[chromeno[2,3-b]pyridine-5,4′-[1,3]oxazol]-2′-amine]
7.76	6.91	CC1(C#Cc2ccc3c(c2)[C@@]2(COC(N)=N2)c2cc(N4CCC(F)(F)C4)ncc2O3)COC1 [Example 163, (5S)-3-(3,3-difluoro-1-pyrrolidinyl)-7-((3-methyl-3-oxetanyl)ethynyl)spiro[chromeno[2,3-c]pyridine-5,4′-[1,3]oxazol]-2′-amine]
7.76	6.76	CC1(C#Cc2cc3c(cn2)Oc2ccc(-c4ccccc4)cc2[C@@]32COC(N)=N2)COC1 [Example 155, (5S)-3-((3-methyl-3-oxetanyl)ethynyl)-7-phenylspiro[chromeno[2,3-c]pyridine-5,4′-[1,3]oxazol]-2′-amine]
7.96	7.34	CC1(C#Cc2cc3c(cn2)Oc2ccc(-c4ccc(F)nc4)cc2[C@@]32COC(N)=N2)COC1 [Example 156, (5S)-7-(6-fluoro-3-pyridinyl)-3-((3-methyl-3-oxetanyl)ethynyl)spiro[chromeno[2,3-c]pyridine-5,4′-[1,3]oxazol]-2′-amine]
8.31	7.08	NC1=N[C@@]2(CO1)c1cc(C#CC3CC3)ccc1Oc1cnc(C3=CCOCC3)cc12 [Example 159, (5S)-7-(cyclopropylethynyl)-3-(3,6-dihydro-2H-pyran-4-yl)spiro[chromeno[2,3-c]pyridine-5,4′-[1,3]oxazol]-2′-amine]
8.48	7.84	CC1(C#Cc2cnc3c(c2)[C@]2(COC(N)=N2)c2cc(-c4cnccn4)ccc2O3)COC1 [Example 168, (5S)-3-((3-methyl-3-oxetanyl)ethynyl)-7-(2-pyrazinyl)spiro[chromeno[2,3-b]pyridine-5,4′-[1,3]oxazol]-2′-amine]
8.59	7.32	NC1=NC2(CO1)c1cc(-c3cccnc3F)ccc1Oc1nc(F)c(C3=CCOCC3)cc12 (stereo not shown) [Example 150, 3-(3,6-dihydro-2H-pyran-4-yl)-2-fluoro-7-(2-fluoro-3-pyridinyl)spiro[chromeno[2,3-b]pyridine-5,4′-[1,3]oxazol]-2′-amine]
8.82	7.74	NC1=N[C@@]2(CO1)c1cc(-c3cccc(Cl)c3F)ccc1Oc1ncc(C3=CCOCC3)cc12 [Example 170, (5S)-7-(3-chloro-2-fluorophenyl)-3-(3,6-dihydro-2H-pyran-4-yl)spiro[chromeno[2,3-b]pyridine-5,4′-[1,3]oxazol]-2′-amine]
8.89	7.29	NC1=NC2(CO1)c1cc(-c3cccnc3F)ccc1Oc1nc(F)c(-c3ccnc(F)c3)cc12 (stereo not shown) [Example 151, 2-fluoro-7-(2-fluoro-3-pyridinyl)-3-(2-fluoro-4-pyridinyl)spiro[chromeno[2,3-b]pyridine-5,4′-[1,3]oxazol]-2′-amine]
8.89	8.35	N#Cc1cccc(-c2ccc3c(c2)[C@@]2(COC(N)=N2)c2cc(C4=CCOCC4)cnc2O3)c1 [Example 169, 3-((5S)-2′-amino-3-(3,6-dihydro-2H-pyran-4-yl)spiro[chromeno[2,3-b]pyridine-5,4′-[1,3]oxazol]-7-yl)benzonitrile]
9.00	7.94	CC1(C#Cc2cc3c(cn2)Oc2ccc(-c4cc(Cl)cnc4F)cc2[C@@]32COC(N)=N2)COC1 [Example 158, (5S)-7-(5-chloro-2-fluoro-3-pyridinyl)-3-((3-methyl-3-oxetanyl)ethynyl)spiro[chromeno[2,3-c]pyridine-5,4′-[1,3]oxazol]-2′-amine]
9.10	7.52	CC1(C#Cc2cc3c(cn2)Oc2ccc(-c4cccc(Cl)c4)cc2[C@@]32COC(N)=N2)COC1 [Example 157, (5S)-7-(3-chlorophenyl)-3-((3-methyl-3-oxetanyl)ethynyl)spiro[chromeno[2,3-c]pyridine-5,4′-[1,3]oxazol]-2′-amine]
9.15	7.67	CC(C)(C)C#Cc1cc2c(nc1F)Oc1ccc(-c3cccnc3F)cc1C21COC(N)=N1 (stereo not shown) [Example 148, 3-(3,3-dimethyl-1-butyn-1-yl)-2-fluoro-7-(2-fluoro-3-pyridinyl)spiro[chromeno[2,3-b]pyridine-5,4′-[1,3]oxazol]-2′-amine]
